From US20080261863A1 (priority 2004, published 2008)

Assays:
[1] = Measurement of blood pressure in anesthetized rats; type: in vivo, rat; conditions: male, Wistar, rat, in vivo; intravenous, rats; read-out: ED50 blood pressure lowering
Description: (§1) Blood pressure in rats was measured following administration of either non-PEGylated or PEGylated VPAC2 agonist peptides. Blood pressure was measured as follows: Male Wistar rats were anesthetized with pentobarbital (55 mg/kg, i.p.) and the right carotid artery and jugular vein were cannulated. The carotid cannula was connected to the Biopac System (Harvard Apparatus Co., Harvard, Mass.) for continuous monitoring of blood pressure and heart rate. Vehicle or peptide was administered by injection through the jugular vein catheter.

[2] = system: blood pressure in Male Wistar rats; assay: Measurement of blood pressure in anesthetized rats; type: in vivo, rat; conditions: FIG. 2, percentage of mean blood pressure of vehicle-treated rats
Description: as §1

VPAC1 = molecular target: T1, VPAC1 (Homo sapiens, UniProt P32241); assay: Cyclic AMP assay, VPAC1 agonist activity; type: cell-based
T1 sequence (P32241 31-457): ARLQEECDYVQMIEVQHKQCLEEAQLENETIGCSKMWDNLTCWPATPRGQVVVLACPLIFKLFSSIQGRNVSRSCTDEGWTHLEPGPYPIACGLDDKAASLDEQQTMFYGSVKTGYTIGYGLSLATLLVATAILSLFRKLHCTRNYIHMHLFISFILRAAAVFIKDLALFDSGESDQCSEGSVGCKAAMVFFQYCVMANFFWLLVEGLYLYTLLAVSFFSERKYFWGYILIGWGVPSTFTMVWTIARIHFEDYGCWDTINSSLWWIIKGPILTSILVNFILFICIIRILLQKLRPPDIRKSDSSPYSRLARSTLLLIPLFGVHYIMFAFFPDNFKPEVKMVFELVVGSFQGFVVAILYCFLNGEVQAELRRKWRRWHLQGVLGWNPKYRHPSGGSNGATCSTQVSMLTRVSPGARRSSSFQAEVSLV

VPAC2 receptor = molecular target: T2, VPAC2 receptor (Homo sapiens, UniProt P41587); assay: Cyclic AMP SPA in CHO cells expressing VPAC2; type: cell-based; conditions: cAMP in cells overexpressing the VPAC2 receptor
T2 construct: expressed in transfected cells; host or cells: CHO cells under hygromycin and Geneticin selection
T2 sequence (P41587 24-438): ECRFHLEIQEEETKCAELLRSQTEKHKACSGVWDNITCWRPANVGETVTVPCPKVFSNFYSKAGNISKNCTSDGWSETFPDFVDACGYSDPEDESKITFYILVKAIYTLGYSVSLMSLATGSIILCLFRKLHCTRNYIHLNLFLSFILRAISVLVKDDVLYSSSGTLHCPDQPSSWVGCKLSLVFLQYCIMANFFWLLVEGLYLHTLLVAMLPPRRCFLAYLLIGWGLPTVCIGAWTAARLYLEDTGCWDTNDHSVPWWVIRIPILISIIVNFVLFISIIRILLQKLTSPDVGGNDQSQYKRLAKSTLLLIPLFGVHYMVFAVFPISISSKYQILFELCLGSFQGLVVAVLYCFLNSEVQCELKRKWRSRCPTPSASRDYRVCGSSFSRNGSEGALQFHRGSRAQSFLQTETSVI
Description: CHO cells expressing the VPAC2 peptide were plated in 96-well plates at 8×10^4 cells/well and grown at 37° C. for 24 hours in αMEM, nucleosides, glutamine (Gibco/BRL, Rockville, Md.), 5% FBS, 100 μg/mL Pen/Strep, 0.4 mg/mL hygromycin, and 1.5 mg/mL Geneticin (Gibco/BRL). The media was removed and the plates were washed with PBS. The cells were incubated with a peptide (in 10 mM Hepes, 150 mM NaCl, 5 mM KCl, 2.5 mM CaCl2, 1.2 mM KH2PO4, 1.2 mM MgSO4, 25 mM NaHCO3 (pH 7.4) with 1% BSA and 100 μM IBMX) for 15 min. at 37° C. Cyclic AMP in the cell extracts was quantitated using the cAMP SPA direct screening assay system (Amersham Pharmacia Biotech Inc., Piscataway, N.J.,). The amount of cAMP present in the lysates was determined following instructions provided with this kit. The amount of cAMP (in pmol) produced at each concentration of peptide was plotted and analyzed by nonlinear regression using Prizm software to determine the EC50 for each peptide.

## CC[C@H](C)[C@H](NC(=O)[C@H](CO)NC(=O)[C@H](CCC(N)=O)NC(=O)[C@H](CC(C)C)NC(=O)[C@H](Cc1ccc(O)cc1)NC(=O)[C@H](CCCCN)NC(=O)[C@H](CCCCN)NC(=O)[C@H](C)NC(=O)[C@H](C)NC(=O)[C@@H](NC(=O)[C@H](CCC(N)=O)NC(=O)[C@H](CCCCN)NC(=O)[C@H](CCCNC(=N)N)NC(=O)[C@H](CC(C)C)NC(=O)[C@H](CCCNC(=N)N)NC(=O)[C@@H](NC(=O)[C@H](Cc1ccc(O)cc1)NC(=O)[C@H](CCC(N)=O)NC(=O)[C@H](CC(=O)O)NC(=O)[C@@H](NC(=O)[C@H](Cc1ccccc1)NC(=O)[C@@H](NC(=O)[C@H](C)NC(=O)[C@H](CC(=O)O)NC(=O)[C@H](CO)NC(=O)[C@@H](N)Cc1c[nH]cn1)C(C)C)[C@@H](C)O)[C@@H](C)O)C(C)C)C(=O)N[C@@H](CCCCN)C(=O)N[C@@H](CCC(N)=O)C(=O)N[C@@H](CCCCN)C(=O)N[C@@H](CCCNC(=N)N)C(=O)N[C@@H](Cc1ccc(O)cc1)C(=O)N[C@@H](CS)C(=O)O [Peptide P12]
[1]
  ED50: 3 µg/kg
[2]
  effect on blood pressure: significantly lowers blood pressure

## PACAP-27
VPAC1
  VPAC1 agonist activity: potent agonist of both the VPAC1 and VPAC2 receptors
VPAC2 receptor
  VPAC2 receptor agonist activity: potent agonist of both the VPAC1 and VPAC2 receptors
